Source: US4522815A, “Anthracycline glycosides” (priority 1982, dated 1985)
In brackets after ≈: the same amount, converted by molar mass.

Assays:
[1] = test system: Gross leukemia; assay: Oral activity against i.v. transplanted Gross leukemia (i.v. comparators); format: in vivo, C3H/Me mice; conditions: Table 7, oral +1
Source text: Results of studies performed in C3H/Me mice carrying i.v. transplanted Gross leukemia and treated i.v. the day after tumor transplantation, are reported in Table 6. […] The compounds Ib and Id were further investigated for oral activity on Gross leukemic transplanted i.v., in comparison with DNR, DX given i.v. and 4-dm DNR given oral route.
Oral activity of Ib and Id against Gross leukemia
^a days after transplantation
(§1) ^d data of two experiments (range)

[2] = test system: Gross leukemia; conditions: already demonstrated; cited from earlier work
[3] = test system: HeLa cells; assay: Colony inhibition test against HeLa cells in vitro (cloning efficiency), treatment for 24 hrs; format: cell-based; conditions: Homo sapiens, HeLa, 24 h, Table 3, 24 hrs
[4] = test system: ascitic P388 leukemia; assay: Antitumor activity against ascitic P388 leukemia in CDF-1 mice, treatment i.p. on day 1; format: in vivo; conditions: Table 5; 0.75 mg/kg i.p. day 1
Description: The primary screening […] was carried out in CDF-1 mice bearing ascitic P388 leukemia (10^6 cells/mouse). Both IIa and IIc were suspended in 10%. Tween 80 and injected intraperitoneally.
Results of the primary screening "in vivo" carried out in CDF-1 mice bearing P388 ascitic leukemia and treated i.p. the day after tumor transplantation, are reported in Table 5.
Antitumor activity against ascitic P388 leukekemia.
(§2) Treatment i.p. on day 1.
^a median survival time; % over untreated controls
^b long term survivors (≥ 60 days)
^c evaluated on the basis of autoptic findings on dead mice
as §1
^e date of three experiments (range)
Antitumor activity of Ib and Id against ascitic P388
as §2

With CC(=O)[C@]1(O)Cc2c(O)c3c(c(O)c2[C@@H](O[C@H]2C[C@H](N)[C@H](O)[C@H](C)O2)C1)C(=O)c1ccccc1C3=O [4-dm DNR, 4-demethoxy DNR, reference compound] the “T/C %, median survival time” value ([1]; 3 mg/kg) was 150%, the Toxic deaths ([1]; 3 mg/kg) was 0/6 and the “T/C %, median survival time” value ([1]; 3.6 mg/kg) was 150%. For the same compound, the Toxic deaths ([1]; 3.6 mg/kg) was 0/6, the “T/C %, median survival time” value ([1]; 4.3 mg/kg) was 216% and the Toxic deaths ([1]; 4.3 mg/kg) was 0/3. For the same compound, the “activity by oral route” value [2] was “active by oral route”, the activity at 0.0031 µg/mL ([3]; 3.1 ng/ml, read-out: No of colonies, % of untreated controls) was 84% and the activity at 0.0062 µg/mL ([3]; 6.2 ng/ml, read-out: No of colonies, % of untreated controls) was 53%. It also gave an activity at 0.0125 µg/mL ([3]; 12.5 ng/ml, read-out: No of colonies, % of untreated controls) of 18%, an activity at 0.025 µg/mL ([3]; 25 ng/ml, read-out: No of colonies, % of untreated controls) of 0% and an IC50 ([3]; HeLa colony inhibition, read-out: ID50 (the source's name)) of about 6.3 ng/mL (≈ 0.0127 µM). For the same compound, the “LTS, long term survivors (≥ 60 days)” value [4] was 0/8, the “T/C, median survival time; % over untreated controls” value [4] was 163% and the “Toxic deaths (autoptic findings on dead mice)” value [4] was 0/8.
